Blank lines part the entries; values can stand above or below the molecule they belong to.
How the values were obtained:
fish = details: 96 hr LC50 (fish); binary mixtures: worse actor; cited from earlier work
[1] = specific target organ toxicity, single exposure; binary mixtures: worse actor; cited from earlier work
[2] = binary mixtures: score of the worse actor of the two; cited from earlier work
[3] = binary mixtures: score of the worse actor of the two; cited from earlier work; remark: listed apart in the source
[4] = NOEC or ECx; binary mixtures: worse actor; cited from earlier work
[5] = binary mixtures: worse actor; cited from earlier work
[6] = binary mixtures: worse actor; cited from earlier work; remark: listed apart in the source
[7] = binary mixtures: score of the worse actor of the two; cited from earlier work; remark: listed apart in the source
[8] = Switching behaviour of ASHS systems under elevated pressures of CO2; assay type: physicochemical; details: EHA:NaOH:H2O combinations that did not become biphasic upon 1 bar of CO2
Description: The sight gauge was kept at a constant temperature (20° C.) in a water bath. The solutions were maintained under stirring due to a magnetic stir bar controlled by a magnetic stir plate. To maximize the stirring, the vessel was placed on its side (horizontal position). The mixture was then pressurized to 10 bar of CO2 in the sight gauge. In order to determine the volume of the phases obtained, measurements of the height of the water-rich and the carboxylic acid phase were obtained using a cathetometer while the vessel was in a vertical position. The relationship between height and internal volume on the sight gauge is known. The vessel was then slowly depressurized. The phases were collected using a glass pipette.

[9] = Evaluation of the switching behaviour of ASHS systems (carboxylic acid/base/water) under air and 1 bar of CO2; assay type: physicochemical; details: for Behaviour of the system after CO2 addition / pH under 1 bar of CO2 / pH under air: 20° C.
Description: Base solutions were prepared by combining the desired base and water (mass for components measured in an analytical scale) into either a 10 or 25 mL graduated cylinder (containing a magnetic stir bar) depending on the final volume of the mixture obtained. The carboxylic acid (mass measured using an analytical balance prior to addition) being studied was added to the base solution, and the mixture was mixed with the help of a magnetic stir plate. The amount of base and water used were selected based on the acid:base:water ratio desired. Experiments were carried out using stoichiometric and substoichiometric amounts of the base relative to the number of mols of acid added. In addition, the quantity of water used was adjusted based on the acid:water mass ratio desired. A typical experiment would contain 1 g of the carboxylic acid; between 0.4 and 1 mol of base per mol of acid; and a water mass varying from 1 to 9.5 g.
During a typical experiment, CO2 would be added for approximately 2 h at atmospheric pressure. At the end of the 2 h, the sparge tube would be removed, and the number and volume of the phases obtained would be recorded. The pH was once again recorded. For mixtures with only 1 phase, the pH of that phase was recorded. While for mixtures with 2 phases, the pH of the aqueous phase was recorded.
In the systems in which the base:acid mole ratio and the water:acid mass ratio were being studied, a slight modification from this method was used. The acid being tested (1 g) was mixed with 1 g of water and the required amount of NaOH (based on the acid:base molar ratio desired) to prepare the mixture. […]
The base solution was then added to the carboxylic acid, and the next steps followed the procedure previously described.

[10] = EHA as solvent
[11] = base 3DMAP, base:acid mole ratio 0.50:1, H2O:acid mass ratio 2.5:1
[12] = base DMEA, base:acid mole ratio 0.55:1, H2O:acid mass ratio 2.5:1
[13] = base Jeffamine D-230 (two moles acid per mole D-230), H2O:acid mass ratio 12:1
[14] = base Jeffamine D-230 (two moles acid per mole D-230), H2O:acid mass ratio 15:1
[15] = base MDEA, base:acid mole ratio 0.55:1, H2O:acid mass ratio 2.5:1
[16] = base TEA, MDEA, DMEA or 3-DMAP, base:acid mol ratio 1:1, H2O:acid mass ratio 1:1
[17] = base TEA, MDEA, DMEA or 3-DMAP, base:acid mol ratio 1:1, H2O:acid mass ratio 2:1
[18] = base TEA, MDEA, DMEA or 3-DMAP, base:acid mol ratio 1:1, H2O:acid mass ratio 6:1
[19] = base TEA, MDEA, DMEA or 3-DMAP, base:acid mol ratio 1:1, H2O:acid mass ratio 15:1
[20] = base TEA, base:acid mole ratio 0.55:1, H2O:acid mass ratio 2.5:1
[21] = substoichiometric aqueous NaOH, 0.6 to 0.7 equivalents of base

SMILES: CCCCN(CCO)CCCC [Bu2NCH2CH2OH, N,N-dibutylethanolamine]
Acute aquatic toxicity, GHS category (fish): 3 (category 3 (H402) means 10 < 96 hr LC50 (fish) ≤ 100 mg/L) | Organ toxicity, GHS category [1]: 3 | Acute toxicity (dermal), GHS category [2]: 4 (category 4 (H312) means 1000 < LD50 ≤ 2000 mg/kg) | Acute toxicity (oral), GHS category [3]: 4 (category 4 (H302) means 300 < LD50 ≤ 2000 mg/kg) | Chronic aquatic toxicity, GHS category [4]: 3 (category 3 (H412) means 0.1 < NOEC or ECx ≤ 1) | Skin irritation, GHS category [5]: 1C | Eye irritation, GHS category [6]: 1

SMILES: CN(C)C1CCCCC1 [CyNMe2]
Acute aquatic toxicity, GHS category (fish): 1 (Category 1 (H400) means 96 hr LC50 (fish) ≤ 1.0 mg/L) | Acute toxicity (dermal), GHS category [2]: 3 (Category 3 (H311) means 200 < LD50 ≤ 1000 mg/kg) | Acute toxicity (oral), GHS category [3]: 3 (Category 3 (H301) means 50 < LD50 ≤ 300 mg/kg) | Acute toxicity (inhalation), GHS category [7]: 3 (category 3 (H331) means 2 < LC50 ≤ 10 mg/L)

Behaviour upon the addition of 10 bar of CO2 [8]: successful switchable behaviour | pH before the addition of CO2 ([9]; 0.8:1 NaOH:EHA mole ratio, 3:1 H2O:EHA mass ratio): 7.2 | Behaviour of the system ([9]; 0.8:1 NaOH:EHA mole ratio, 3:1 H2O:EHA mass ratio, 1 bar CO2): did not present a switchable behaviour | pH before the addition of CO2 ([9]; 0.9:1 NaOH:EHA mole ratio, 1:1 H2O:EHA mass ratio): 7.5 | pH before the addition of CO2 ([9]; 0.9:1 NaOH:EHA mole ratio, 3:1 H2O:EHA mass ratio): 7.2 | pH before the addition of CO2 ([9]; 0.9:1 NaOH:EHA mole ratio, 4:1 H2O:EHA mass ratio): 7.1 | pH before the addition of CO2 ([9]; 0.9:1 NaOH:EHA mole ratio, 5:1 H2O:EHA mass ratio): 7.2 | Behaviour of the system ([9]; 0.9:1 NaOH:EHA mole ratio, 5:1 H2O:EHA mass ratio, 1 bar CO2): presented a switchable behaviour | Behaviour of the system ([9]; 0.9:1 NaOH:EHA mole ratio, H2O:EHA mass ratio from 1:1 to 3:1, 1 bar of CO2): do not present a switchable behaviour | Behaviour of the system ([9]; 0.9:1 NaOH:EHA mole ratio, extra water beyond 4:1 H2O:EHA mass ratio): become biphasic under air | pH under air, lowest value once extra water is added ([9]; 0.9:1 NaOH:EHA mole ratio, more water than 4:1, pH decreases from 7.1): 6.6 | Behaviour of the system ([9]; 2.5:1 H2O:EHA mass ratio, 0.65 NaOH:EHA mol ratio, 1 bar CO2): switchable behaviour | Behaviour of the system ([9]; 2.5:1 H2O:EHA mass ratio, 0.70 NaOH:EHA mol ratio, 1 bar CO2): remains monophasic after CO2 addition | Behaviour of the system after CO2 addition ([9]; base 3DMAP, base:acid mole ratio 0.50:1, H2O:acid mass ratio 2.5:1, 1 bar CO2, threshold 50 vol % recovered): Phase separation above 50 | pH under 1 bar of CO2 [9, 11]: 6.64 | pH under air [9, 11]: 6.53 | Behaviour of the system after CO2 addition ([9]; base DMEA, base:acid mole ratio 0.55:1, H2O:acid mass ratio 2.5:1, 1 bar CO2, threshold 50 vol % recovered): Phase separation above 50 | pH under 1 bar of CO2 [9, 12]: 6.69 | pH under air [9, 12]: 6.57 | Behaviour of the system after CO2 addition ([9]; base Jeffamine D-230 (two moles acid per mole D-230), H2O:acid mass ratio 12:1, 1 bar CO2, partial = acid recovered smaller than mass added): Partial phase separation | pH under 1 bar of CO2 [9, 13]: 6.94 | pH under air [9, 13]: 6.98 | Behaviour of the system after CO2 addition ([9]; base Jeffamine D-230 (two moles acid per mole D-230), H2O:acid mass ratio 15:1, 1 bar CO2, partial = acid recovered smaller than mass added): Partial phase separation | pH under 1 bar of CO2 [9, 14]: 6.74 | pH under air [9, 14]: 8.34 | Phase behaviour upon addition of 1 bar of CO2 ([9]; base Jeffamine D-230, TEA, MDEA, DMEA or 3DMAP, base:acid mole ratio 1:1, water:acid mass ratio 15:1 and other ratios): no phase separation was observed | Behaviour of the system after CO2 addition ([9]; base MDEA, base:acid mole ratio 0.55:1, H2O:acid mass ratio 2.5:1, 1 bar CO2, threshold 50 vol % recovered): No phase separation | pH under 1 bar of CO2 [9, 15]: 6.61 | pH under air [9, 15]: 6.50 | Behaviour of the system ([9]; base NaOH, 2:1 H2O:acid mass ratio, 1 bar CO2, narrow range of base:acid ratio): successful switchable behaviour | Behaviour of the system ([9]; base NaOH, carboxylic acid:H2O mass ratio 1:2.5, carboxylic acid:NaOH mol ratio 1:0.6): Switchable | Behaviour of the system after CO2 addition ([9]; base TEA, MDEA, DMEA or 3-DMAP, base:acid mol ratio 1:1, H2O:acid mass ratio 1:1, 1 bar CO2): No phase separation | pH under 1 bar of CO2 [9, 16]: 7.50-8.05 | pH under air [9, 16]: 7.50-8.30 | Behaviour of the system after CO2 addition ([9]; base TEA, MDEA, DMEA or 3-DMAP, base:acid mol ratio 1:1, H2O:acid mass ratio 2:1, 1 bar CO2): No phase separation | pH under 1 bar of CO2 [9, 17]: 7.20-7.60 | pH under air [9, 17]: 8.00-8.15 | Behaviour of the system after CO2 addition ([9]; base TEA, MDEA, DMEA or 3-DMAP, base:acid mol ratio 1:1, H2O:acid mass ratio 6:1, 1 bar CO2): No phase separation | pH under 1 bar of CO2 [9, 18]: 6.20-6.70 | pH under air [9, 18]: 7.50-8.10 | Behaviour of the system after CO2 addition ([9]; base TEA, MDEA, DMEA or 3-DMAP, base:acid mol ratio 1:1, H2O:acid mass ratio 15:1, 1 bar CO2): No phase separation | pH under 1 bar of CO2 [9, 19]: 6.60-6.80 | pH under air [9, 19]: 6.80-7.90 | Behaviour of the system after CO2 addition ([9]; base TEA, base:acid mole ratio 0.55:1, H2O:acid mass ratio 2.5:1, 1 bar CO2): No phase separation | pH under 1 bar of CO2 [9, 20]: 6.53 | pH under air [9, 20]: 6.48 | Phase behaviour upon addition of CO2 [9, 21]: phase separation was observed | Phases under air [9, 21]: one phase | maximum EPS loading that still allows the next steps [10]: 5 wt %
SMILES: CCCCC(CC)C(=O)O (centres unmarked) [EHA, 2-ethylhexanoic acid]
Behaviour of the system ([9]; base NH4OH, 2:1 H2O:acid mass ratio, 1 bar CO2): phase switchable behaviour was not observed | Behaviour of the system ([9]; base pyridine, 2:1 H2O:acid mass ratio): the acid remains as a separate phase under air
